From patent US20120178742A1, “METABOTROPIC GLUTAMATE RECEPTOR MODULATORS” (MERZ PHARMA GmbH & CO. KGaA, priority 2009, published 2012)

Tests used:
[1] = target: T1, human metabotropic glutamate receptor mGluR5 (Homo sapiens, UniProt P41594); test: Cytosolic calcium studies with stably transfected cells (CHO-K1); type: cell-based
T1 construct: expressed in transfected cells; host or cells: CHO-K1
Description: Functional Assay of mGluR5 Receptors Cytosolic Calcium Studies with Stably Transfected Cells
Chinese hamster ovary cells (CHO-K1 cells), stably transfected for inducible expression of a human metabotropic glutamate receptor mGluR5, are seeded into black clear bottom 96 well plates at a density of 35.000 cells per well. The standard growth medium used (Dulbecco's modified Eagle Medium, DMEM plus L-proline) contains the appropriate inducer isopropyl-β-D-thiogalactopyranosid (IPTG) to achieve optimal receptor expression. One day after seeding the growth medium is exchanged for reconstituted Ca-Kit (Molecular Devices, USA) and incubated for one hour. Ca-Kit is reconstituted in an assay buffer containing 20 mM HEPES pH 7.4, glutamic-pyruvate transaminase, pyridoxal phosphate and sodium pyruvate in Hank's balanced salt solution (HBBS). Agonistic compounds to the receptor elicit increases in cytosolic calcium which can be measured as increases in fluorescence signals by use of a fluorescence imaging plate reader (Molecular Devices). […] Similarly, for the characterization of positive allosteric modulators, a dilution series of the test compound is added online to 384 well plates containing the described dye loaded cells and after a preincubation time of 5 minutes stimulated by a basal cell concentration of the agonist L-glutamate giving about 20% of the maximal signal.
(§1) The fluorescence signal increase after addition of agonist reflects the increase of cytosolic calcium. Inconsistencies in the amount of cells per well are normalised by using the spatial uniformity correction of the FLIPR operating software Screenworks. The mean of replicated temporal data (n=3-5) is calculated and used for graphical representation. For the evaluation of the pharmacology, the calcium changes in response to different concentrations of agonist or antagonist are determined using a maximum minus minimum (MaxMin) calculation.
(§2) All responses (RFU-values) are determined as percentage of control (=maximum response). EC50 and IC50 are calculated according the logistic equation using Prism 4.0 (GraphPad Software, USA).

mGluR5 receptors = target: T2, mGluR5 receptors (Rattus norvegicus, UniProt P31424); test: Cytosolic calcium studies with cultured rat astrocytes; type: cell-based
T2 construct: Primary astrocyte cultures are prepared from cortices of newborn rats; endogenous in cells; host or cells: primary rat cortical astrocytes (Sprague-Dawley pups)
T2 sequence (P31424 21-1203): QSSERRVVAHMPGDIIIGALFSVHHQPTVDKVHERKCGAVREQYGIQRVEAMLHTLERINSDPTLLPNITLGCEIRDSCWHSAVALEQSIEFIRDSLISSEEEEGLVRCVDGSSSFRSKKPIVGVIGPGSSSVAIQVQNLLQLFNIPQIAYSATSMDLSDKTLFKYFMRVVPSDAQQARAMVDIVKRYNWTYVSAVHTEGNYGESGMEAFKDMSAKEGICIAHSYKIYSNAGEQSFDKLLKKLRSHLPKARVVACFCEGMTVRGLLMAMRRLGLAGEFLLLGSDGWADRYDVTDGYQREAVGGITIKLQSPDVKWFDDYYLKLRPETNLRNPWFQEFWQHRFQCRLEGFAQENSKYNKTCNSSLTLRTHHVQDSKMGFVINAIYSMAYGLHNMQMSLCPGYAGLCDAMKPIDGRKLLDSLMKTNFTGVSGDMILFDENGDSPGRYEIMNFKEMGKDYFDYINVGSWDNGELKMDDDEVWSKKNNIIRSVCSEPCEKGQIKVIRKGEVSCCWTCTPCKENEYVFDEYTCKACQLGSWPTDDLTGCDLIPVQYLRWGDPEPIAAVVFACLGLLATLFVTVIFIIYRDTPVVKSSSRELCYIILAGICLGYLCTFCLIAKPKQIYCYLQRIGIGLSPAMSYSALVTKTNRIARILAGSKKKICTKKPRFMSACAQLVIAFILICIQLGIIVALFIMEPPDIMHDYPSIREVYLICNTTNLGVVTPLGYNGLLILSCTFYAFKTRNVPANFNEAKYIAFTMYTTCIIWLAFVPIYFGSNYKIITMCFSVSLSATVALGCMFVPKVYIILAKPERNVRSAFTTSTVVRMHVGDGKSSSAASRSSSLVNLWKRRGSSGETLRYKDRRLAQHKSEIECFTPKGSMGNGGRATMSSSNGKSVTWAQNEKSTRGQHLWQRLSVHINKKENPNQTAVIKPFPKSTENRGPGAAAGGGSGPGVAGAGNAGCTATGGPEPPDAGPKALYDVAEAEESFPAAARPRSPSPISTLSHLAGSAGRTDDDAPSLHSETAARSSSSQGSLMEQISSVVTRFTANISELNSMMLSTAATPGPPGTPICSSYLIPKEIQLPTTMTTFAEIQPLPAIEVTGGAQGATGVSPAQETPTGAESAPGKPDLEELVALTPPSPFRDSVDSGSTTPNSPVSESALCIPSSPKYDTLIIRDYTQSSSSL
Description: Primary astrocyte cultures are prepared from cortices of newborn rats as described by Booher and Sensenbrenner (1972, Neurobiology 2(3):97-105). Briefly, Sprague-Dawley rat pups (2-4 d old) are decapitated and neocortices are dissected, disintegrated with a nylon filter (pore size 80 μm) and carefully triturated. The cell suspension is plated on poly-D-lysine pre-coated flasks (Costar, Netherlands) and cultivated in Dulbecco's Modified Eagle's Medium (DMEM, Invitrogen, Germany) supplemented with 10% foetal calf serum (FCS, Sigma, Germany), 4 mM glutamine and […] gentamycin (both Biochrom, Germany) at 37° C. in a humidified atmosphere of 5% CO2/95% air for 7 days with exchanging the medium at day 2 and 6.
After 7 days in vitro (DIV), cells are shaken overnight at 250 rpm to remove oligodendrocytes and microglia. The next day, astrocytes are rinsed twice with CMF-PBS (calcium- and magnesium-free phosphate buffered saline, Biochrom, Germany), trypsinized and subplated on poly-D-lysine pre-coated 96-well plates (Greiner, Germany) at a density of 40,000 cells/well. 24 h after establishing the secondary culture the astrocytes are rinsed with PBS″ (phosphate buffered saline, Biochrom, Germany) and fed with astrocyte-defined medium (ADM) consisting of DMEM containing 1× G5-supplement (Invitrogen, Germany), 0.5 μg/ml heparan sulfate, and 1.5 μg/ml fibronectin (both Sigma, Germany) (Miller et al., (1993) Brain Res. 618(1):175-8). 3 days later the medium is exchanged and the cells incubated for another 2-3 days, so that at the time of experiments astrocytes are 14-15 DIV.
The increase of cytosolic calcium after stimulation with the mGluR5 agonist L-quisqualate is measured using a fluorometric imaging plate reader (FLIPR) and the Ca-Kit (both Molecular Devices). Prior to addition of agonist or antagonist the medium is aspirated and cells are loaded for 2 h at RT with 150 μl of loading buffer consisting of Ca-sensitive dye reconstituted in sodium chloride (123 mM), potassium chloride (5.4 mM), magnesium chloride (0.8 mM), calcium chloride (1.8 mM), D-glucose (15 mM), and HEPES (20 mM), pH 7.3. Subsequently, plates are transferred to FLIPR to detect calcium increase with the addition of L-quisqualate (100 nM) measured as relative fluorescence units (RFU). If antagonists are tested, these compounds are pre-incubated for 10 minutes at RT before addition of the respective agonist.
Thereafter, concentration-response curves for the positive modulator are performed in the presence of a fixed concentration of quisqualate showing the biggest window for potentiation (normally 10-30 nM).
as §1, §2

T1 sequence (P41594 21-1212): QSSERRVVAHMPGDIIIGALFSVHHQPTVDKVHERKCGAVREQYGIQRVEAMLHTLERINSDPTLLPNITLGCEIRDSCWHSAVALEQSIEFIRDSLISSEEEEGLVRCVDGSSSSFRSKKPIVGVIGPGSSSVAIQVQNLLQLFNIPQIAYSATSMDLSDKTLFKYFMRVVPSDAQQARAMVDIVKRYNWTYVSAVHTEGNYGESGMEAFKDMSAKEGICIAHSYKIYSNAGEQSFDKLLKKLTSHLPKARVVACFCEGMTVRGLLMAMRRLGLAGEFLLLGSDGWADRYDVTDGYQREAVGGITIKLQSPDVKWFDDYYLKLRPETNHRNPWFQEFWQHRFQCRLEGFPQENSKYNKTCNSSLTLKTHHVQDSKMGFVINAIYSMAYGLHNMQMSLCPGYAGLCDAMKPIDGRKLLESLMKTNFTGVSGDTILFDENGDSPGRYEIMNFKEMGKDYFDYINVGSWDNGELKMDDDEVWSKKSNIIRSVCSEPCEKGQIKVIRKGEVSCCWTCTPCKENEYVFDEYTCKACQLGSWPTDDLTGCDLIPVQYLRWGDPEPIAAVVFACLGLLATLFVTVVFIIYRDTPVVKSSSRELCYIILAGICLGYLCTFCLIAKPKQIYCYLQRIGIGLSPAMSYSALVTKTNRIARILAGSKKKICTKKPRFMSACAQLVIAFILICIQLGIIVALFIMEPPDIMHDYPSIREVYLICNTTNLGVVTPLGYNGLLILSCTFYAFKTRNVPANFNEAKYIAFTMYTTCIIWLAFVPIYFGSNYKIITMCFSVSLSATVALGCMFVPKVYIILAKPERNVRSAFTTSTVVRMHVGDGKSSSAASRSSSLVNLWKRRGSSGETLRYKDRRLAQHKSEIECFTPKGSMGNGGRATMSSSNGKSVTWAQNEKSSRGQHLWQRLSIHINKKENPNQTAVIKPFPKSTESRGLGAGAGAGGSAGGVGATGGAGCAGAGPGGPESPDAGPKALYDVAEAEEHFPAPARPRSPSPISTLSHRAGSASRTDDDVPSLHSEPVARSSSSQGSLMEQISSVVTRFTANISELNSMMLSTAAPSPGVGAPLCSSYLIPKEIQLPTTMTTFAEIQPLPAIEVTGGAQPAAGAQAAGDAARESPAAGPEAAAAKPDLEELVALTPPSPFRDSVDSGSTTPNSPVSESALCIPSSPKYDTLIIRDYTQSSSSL

Row | SMILES | EC50 [1] [nM] | EC50 (mGluR5 receptors) [nM]
1 | O=C(c1cc2ccc(C#Cc3ccccc3)cn2n1)N1CCCCC1 [Example 32, (6-Phenylethynyl-pyrazolo[1,5-a]pyridin-2-yl)-piperidin-1-yl-methanone] | 250 | 480
2 | Fc1cc(F)cc(C#Cc2cnc3ncsc3c2)c1 [Example 80, 6-((3,5-Difluorophenyl)ethynyl)thiazolo[4,5-b]pyridine] | 660 | 440
3 | Cn1cnc2cc(C#Cc3ccc(F)cc3)cnc21 [Example 106, 6-(4-Fluoro-phenylethynyl)-3-methyl-3H-imidazo[4,5-b]pyridine] | 57 | –
4 | Cc1cccc(C#Cc2cnc3cccnc3c2)c1 [Example 95, 3-(m-Tolylethynyl)-[1,5]naphthyridine] | 5.5 | 2.3
5 | Clc1cccc(C#Cc2cnc3nccnc3c2)c1 [Example 111, 7-((3-Chlorophenyl)ethynyl)pyrido[2,3-b]pyrazine] | 120 | –
6 | Fc1cc(F)cc(C#Cc2cnc3nccnc3c2)c1 [Example 108, 7-((3,5-Difluorophenyl)ethynyl)pyrido[2,3-b]pyrazine] | 4100 | –
7 | Fc1ccc(C#Cc2cnc3cccnc3c2)cc1 [Example 69, 3-(4-Fluoro-phenylethynyl)-[1,5]naphthyridine] | 9.8 | 12
8 | Cc1ccc(C#Cc2cnc3cccnc3c2)c(F)c1 [Example 115, 3-((2-Fluoro-4-methylphenyl)ethynyl)-[1,5]naphthyridine] | 690 | –
9 | Fc1ccc(C#Cc2cnc3nccnc3c2)c(F)c1 [Example 109, 7-((2,4-Difluorophenyl)ethynyl)pyrido[2,3-b]pyrazine] | 3500 | –
10 | Fc1cccc(C#Cc2ccc3ncnn3c2)c1 [Example 53, 6-(3-Fluoro-phenylethynyl)-[1,2,4]triazolo[1,5-a]pyridine] | 430 | –
11 | C(#Cc1ccc2nc(-c3ccco3)nn2c1)c1ccccc1 [Example 84, 2-Furan-2-yl-6-phenylethynyl-[1,2,4]triazolo[1,5-a]pyridine] | 410 | –
12 | Fc1cc(F)cc(C#Cc2cnc3ccnn3c2)c1 [Example 11, 6-(3,5-Difluoro-phenylethynyl)-pyrazolo[1,5-a]pyrimidine] | 200 | –
13 | C(#Cc1cnc2cccnc2c1)c1ccccc1 [Example 41, 3-Phenylethynyl-[1,5]naphthyridine] | – | 5
14 | Fc1cccc(F)c1C#Cc1cnc2ncsc2c1 [Example 78, 6-((2,6-Difluorophenyl)ethynyl)thiazolo[4,5-b]pyridine] | 1700 | –
15 | O=C(c1cc2ncc(C#Cc3ccccc3)cn2n1)N1CCCC1 [Example 19, (6-Phenylethynyl-pyrazolo[1,5-a]pyrimidin-2-yl)-pyrrolidin-1-yl-methanone] | 610 | –
16 | O=C(c1cc2ncc(C#Cc3ccccc3)cn2n1)N1CCCCCC1 [Example 17, Azepan-1-yl-(6-phenylethynyl-pyrazolo[1,5-a]pyrimidin-2-yl)-methanone] | 260 | –
17 | Fc1ccccc1C#Cc1cnc2ncnn2c1 [Example 48, 6-(2-Fluoro-phenylethynyl)-[1,2,4]triazolo[1,5-a]pyrimidine] | 1000 | –
18 | O=C(c1nc2ncc(C#Cc3ccccc3)cn2n1)N1CCCCC1 [Example 36, (6-Phenylethynyl-[1,2,4]triazolo[1,5-a]pyrimidin-2-yl)-piperidin-1-yl-methanone] | 940 | –
19 | O=C(c1cc2ncc(C#Cc3ccccc3)cn2n1)N1CCC(c2ccccc2)CC1 [Example 18, (6-Phenylethynyl-pyrazolo[1,5-a]pyrimidin-2-yl)-(4-phenyl-piperidin-1-yl)-methanone] | 340 | –
20 | CC(C)(C)OC(=O)N1CC=C(C#Cc2cnc3ccnn3c2)CC1 [Example 12, 4-Pyrazolo[1,5-a]pyrimidin-6-ylethynyl-3,6-dihydro-2H-pyridine-1-carboxylic acid tert-butyl ester] | 1300 | –

Row | SMILES | EC50 [1] [nM] | EC50 (mGluR5 receptors) [nM]
21 | O=C(c1nc2ccc(C#Cc3ccc(F)cc3)cn2n1)N1CCCCC1 [Example 59, [6-(4-Fluoro-phenylethynyl)-[1,2,4]triazolo[1,5-a]pyridin-2-yl]-piperidin-1-yl-methanone] | 6900 | –
22 | C(#Cc1ccc2ccnn2c1)c1ccccc1 [Example 29, 6-Phenylethynyl-pyrazolo[1,5-a]pyridine] | 78 | –
23 | Clc1cc(Cl)cc(C#Cc2cnc3ccnn3c2)c1 [Example 2, 6-(3,5-Dichloro-phenylethynyl)-pyrazolo[1,5-a]pyrimidine] | 520 | –
24 | Fc1ccc(C#Cc2cnc3ncnn3c2)cc1 [Example 49, 6-(4-Fluoro-phenylethynyl)-[1,2,4]triazolo[1,5-a]pyrimidine] | 1800 | –
25 | C(#Cc1cnc2ncoc2c1)C1=CCCCC1 [Example 71, 6-Cyclohex-1-enylethynyl-oxazolo[4,5-b]pyridine] | 6.3 | –
26 | C(#Cc1cnc2cccnc2c1)c1cccnc1 [Example 101, 3-(Pyridin-3-ylethynyl)-1,5-naphthyridine] | 470 | –
27 | COc1cnc2ncc(C#Cc3ccccc3)cc2n1 [Example 92, 2-Methoxy-7-(phenylethynyl)pyrido[2,3-b]pyrazine] | 280 | –
28 | Fc1cccc(F)c1C#Cc1cnc2nccnc2c1 [Example 107, 7-((2,6-Difluorophenyl)ethynyl)pyrido[2,3-b]pyrazine] | 3700 | –
29 | Cc1ccc(C#Cc2cnc3ccnn3c2)cc1 [Example 9, 6-p-Tolylethynyl-pyrazolo[1,5-a]pyrimidine] | 77 | –
30 | C(#Cc1cnc2ccnn2c1)Cc1ccccc1 [Example 14, 6-(3-Phenyl-prop-1-ynyl)-pyrazolo[1,5-a]pyrimidine] | 120 | –
31 | Fc1ccc(-c2cc3ncc(C#Cc4ccccc4)cn3n2)cc1 [Example 28, 2-(4-Fluoro-phenyl)-6-phenylethynyl-pyrazolo[1,5-a]pyrimidine] | 93 | –
32 | C(#Cc1ccc2ccnn2c1)C1=CCCCC1 [Example 30, 6-Cyclohex-1-enylethynyl-pyrazolo[1,5-a]pyridine] | 29 | –
33 | Cn1cnc2cc(C#Cc3cccc(F)c3)cnc21 [Example 105, 6-(3-Fluoro-phenylethynyl)-3-methyl-3H-imidazo[4,5-b]pyridine] | 21 | –
34 | Cc1ccccc1C#Cc1cnc2nccnc2c1 [Example 87, 7-(o-Tolylethynyl)-pyrido[2,3-b]pyrazine] | 1100 | –
35 | O=C(c1nc2ccc(C#Cc3cccc(F)c3)cn2n1)N1CCCCC1 [Example 57, [6-(3-Fluoro-phenylethynyl)-[1,2,4]triazolo[1,5-a]pyridin-2-yl]-piperidin-1-yl-methanone] | 1200 | –
36 | C(#Cc1cnc2ncoc2c1)c1ccccc1 [Example 42, 6-Phenylethynyl-oxazolo[4,5-b]pyridine] | 470 | –
37 | O=C(c1nc2ccc(C#Cc3ccccc3F)cn2n1)N1CCCCC1 [Example 58, [6-(2-Fluoro-phenylethynyl)-[1,2,4]triazolo[1,5-a]pyridin-2-yl]-piperidin-1-yl-methanone] | – | 1100
38 | Oc1ccc(C#Cc2cnc3nccnc3c2)cc1 [Example 90, 4-(Pyrido[2,3-b]pyrazin-7-ylethynyl)phenol] | – | 1000
39 | Fc1ccc(C#Cc2cnc3ncoc3c2)cc1 [Example 70, 6-(4-Fluoro-phenylethynyl)-oxazolo[4,5-b]pyridine] | 1400 | –
